Source: BindingDB's records for doi:10.1016/j.bmcl.2010.11.050 (The University of Tokushima Graduate School, 2010)

Molecular target: Carbonic anhydrase 2 (Bos taurus, UniProt P00921)
Test: Binding affinity to bovine carbonic anhydrase 2

Carbonic anhydrase 2, sequence (P00921 whole entry): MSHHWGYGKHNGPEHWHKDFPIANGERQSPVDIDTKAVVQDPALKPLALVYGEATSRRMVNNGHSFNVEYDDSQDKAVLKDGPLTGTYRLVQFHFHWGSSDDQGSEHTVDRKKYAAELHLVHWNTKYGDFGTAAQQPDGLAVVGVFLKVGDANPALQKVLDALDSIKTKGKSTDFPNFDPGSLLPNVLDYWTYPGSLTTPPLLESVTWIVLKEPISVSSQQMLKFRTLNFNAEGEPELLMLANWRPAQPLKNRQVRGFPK

| SMILES | Ki [nM] |
| --- | --- |
| Cc1ccc(S(N)(=O)=O)cc1 | 58 |
| NS(=O)(=O)c1ccc([N+](=O)[O-])c(C(F)(F)F)c1 | 1.7 |
| NS(=O)(=O)c1ccc(Cl)c(Cl)c1 [3,4-Dichloro-Benzenesulfonamide] | 2.5 |
| NS(=O)(=O)c1cccc(Cl)c1 [3-Chloro-Benzenesulfonamide] | 16 |
| Cc1cccc(S(N)(=O)=O)c1 [3-Methylbenzenesulfonamide] | 132 |
| NS(=O)(=O)c1cccc([N+](=O)[O-])c1 [3-Nitro-benzenesulfonamide] | 8.5 |

Other lines, results leading:

| Ki [nM] | SMILES |
| --- | --- |
| 17 | CC(=O)c1ccc(S(N)(=O)=O)cc1 [4-Acetyl-Benzenesulfonamide] |
| 2 | NS(=O)(=O)c1ccc(Cl)c([N+](=O)[O-])c1 [4-Chloro-3-nitro-benzenesulfonamide] |
| 7.1 | N#Cc1ccc(S(N)(=O)=O)cc1 [4-Cyano-Benzenesulfonamide] |
| 102 | COc1ccc(S(N)(=O)=O)cc1 [4-Methoxy-Benzenesulfonamide] |
| 288 | CNc1ccc(S(N)(=O)=O)cc1 [4-Methylamino-benzenesulfonamide] |
| 14 | NS(=O)(=O)c1ccc(Cl)cc1 [p-Halide-sulfanilamide derivative, 2] |
| 14 | NS(=O)(=O)c1ccc(Br)cc1 [p-Halide-sulfanilamide derivative, 2a] |
